Assay results taken from publication PMC9995496, “A screen for MeCP2-TBL1 interaction inhibitors using a luminescence-based assay” (Scientific Reports, 2023).
Counter-ions that a name gives are not always drawn.

System: PRKACA-PRKAR2A interaction (SmBiT-PRKACA / LgBiT-PRKAR2A), protein kinase A
Parameters: NanoLuc complementation counter-screen in cell extract, PRKACA with PRKAR2A, loss of luminescence, detects NanoLuc interference
Details: 0.5 h, 20 µM; inhibitor

Row | SMILES | Inh (PKA)
1 | COc1cc2c3cc1Oc1c(OC)c(OC)cc4c1[C@@H](Cc1cccc(c1)Oc1ccc(c(O)c1)C[C@@H]3N(C)CC2)N(C)CC4 [UM0141561:06, Berbamine hydrochloride] | 0.4662%

Same assay, conditions: counter-screen for NanoLuc interference, 0.5 h, 20 µM, inhibitor, Inh (PKA)

Row | SMILES | Inh (PKA)
2 | Cn1c(=O)cc(N2CCC[C@@H](N)C2)n(Cc2ccccc2C#N)c1=O [UM0141676:01, Alogliptin (SYR-322)] | 0.7637%
3 | Oc1cccc(-c2nc(N3CCOCC3)c3oc4ncccc4c3n2)c1 [UM0141606:01, PI-103 Hydrochloride] | 17.85%
4 | Nc1nc2[nH]cc(CCc3ccc(C(=O)N[C@@H](CCC(=O)O)C(=O)O)cc3)c2c(=O)[nH]1 [UM0141598:01, Pemetrexed disodium hemipenta hydrate] | 0.5825%
5 | Clc1ccc(Nc2nnc(Cc3ccncc3)c3ccccc23)cc1 [UM0127963:02, Vatalanib (PTK787) 2HCl] | 26.41%
6 | CC(=O)c1c(C)c2cnc(Nc3ccc(N4CCNCC4)cn3)nc2n(C2CCCC2)c1=O [UM0141999:01, Palbociclib (PD0332991) Isethionate] | 9.751%

Same assay, conditions: counter-screen for NanoLuc interference; 0.5 h, 20 µM; inhibitor

Row | SMILES | Inh (PKA)
7 | O=C1C[C@@H](c2ccc(O)cc2)Oc2cc(O)cc(O)c21 [UM0142845:01, Naringenin] | 6.247%
8 | CC(C)(CCCCCC(O)CCCCCC(C)(C)C(=O)O)C(=O)O [UM0142125:01, ETC-1002] | 5.399%
9 | CCCCCCCc1ccc(CCc2cccc(O)c2C(=O)O)cc1 [UM0142505:01, MG 149] | 11.49%
10 | c1cncc(CN2CCC(n3ncc4c(N5CCOCC5)nc(-c5ccc6[nH]ccc6c5)nc43)CC2)c1 [UM0142335:01, WAY-600] | 7.744%
11 | OCCn1cc(-c2cnc3nnn(Cc4ccc5ncccc5c4)c3n2)cn1 [UM0141870:01, PF-04217903] | 1.023%
12 | O=C(NOCC1CC1)c1ccc(F)c(F)c1Nc1ccc(I)cc1Cl [UM0130972:02, PD184352 (CI-1040)] | 70.13%
13 | Nc1nc(F)nc2c1ncn2[C@@H]1O[C@H](CO)[C@@H](O)[C@@H]1O [UM0141888:01, Fludarabine] | 1.153%
14 | CC(C)=CCC[C@]1(C)C=Cc2c(O)c3c(c(CC=C(C)C)c2O1)O[C@]12C(=C[C@@H]4C[C@H]1C(C)(C)O[C@@]2(C/C=C(/C)C(=O)O)C4=O)C3=O [UM0141555:01, Gambogic Acid] | 4.588%
15 | O=c1cc(-c2ccc(O)c(O)c2)oc2cc(O)cc(O)c12 [UM0133934:02, Luteolin] | 25.55%
16 | Cc1cc2c(F)c(Oc3ncnn4cc(OC[C@@H](C)OC(=O)[C@H](C)N)c(C)c34)ccc2[nH]1 [UM0141479:01, Brivanib Alaninate (BMS-582664)] | 33.56%
17 | Cc1nc(N)sc1-c1ccnc(Nc2ccc(N3CCOCC3)cc2)n1 [UM0141722:01, CYC116] | 23.62%
18 | CC(C)(C#N)c1cc(Cn2cncn2)cc(C(C)(C)C#N)c1 [UM0142230:01, Anastrozole] | 5.113%
19 | O=c1cc(N2CCOCC2)oc2c(-c3ccccc3)cccc12 [UM0127884:02, LY 294002] | 0.5276%
20 | OCc1ccc(-c2ccc(-c3ccc(CO)s3)o2)s1 [UM0141761:01, RITA (NSC 652287)] | 10.18%
21 | CSC(=N)N [UM0119990:03, (S)-Methylisothiourea sulfate] | -0.9184%
22 | CC(C)(Oc1ccc(C2CC2(Cl)Cl)cc1)C(=O)O (stereo not shown) [UM0119000:03, Ciprofibrate] | 9.84%
23 | Oc1ncnc2[nH]ncc12 [UM0142014:01, Allopurinol] | -0.9072%
24 | CNC(=O)[C@@H](NC(=O)[C@H](CC(C)C)[C@H](O)C(=O)NO)C(C)(C)C [UM0141678:01, Marimastat] | 0.03588%
25 | CCCCCCCCCCCCCC(=S)NCCCC[C@H](NC(=O)OCc1ccccc1)C(=O)Nc1ccccc1 [UM0142815:01, Thiomyristoyl] | -1.991%
26 | Oc1cc(CNC(=S)/C=C/c2cc(O)c(O)c(Br)c2)cc(O)c1O [UM0142805:01, NT157] | 30.97%

Row | SMILES | Inh (PKA)
27 | C[C@@H](O)[C@H](NC(=O)c1ccc(C#Cc2ccc(CN3CCOCC3)cc2)cc1)C(=O)NO [UM0141531:01, CHIR-090] | 2.568%
28 | c1ccc(-c2[nH]ncc2-c2ccnc3ccccc23)nc1 [UM0127931:02, LY364947] | 7.119%
29 | CC(C)n1c(/C=C/[C@H](O)C[C@H](O)CC(=O)O)c(-c2ccc(F)cc2)c2ccccc21 [UM0141552:01, Fluvastatin] | 9.856%
30 | Cc1cn([C@H]2C=C[C@@H](CO)O2)c(=O)[nH]c1=O [UM0142454:01, Stavudine (d4T)] | 0.5167%
31 | Nc1nc(N)c2nc(-c3ccccc3)c(N)nc2n1 [UM0118431:03, Triamterene] | 1.702%
32 | CCOC(=O)C1=C(C)NC(C)=C(C(=O)OCC)C1c1ccccc1/C=C/C(=O)OC(C)(C)C [UM0142247:01, Lacidipine] | 92.96%
33 | COC[C@H]1OC(=O)c2coc3c2[C@@]1(C)C1=C(C3=O)[C@@H]2CCC(=O)[C@@]2(C)C[C@H]1OC(C)=O [UM0134355:02, Wortmannin] | 31.91%
34 | CNC[C@H](O)c1ccc(O)c(O)c1 [UM0142209:01, L-Adrenaline] | 7.349%
35 | C[N+](C)(C)CCOC(=O)CCC(=O)OCC[N+](C)(C)C [UM0142319:01, Succinylcholine Chloride Dihydrate] | -1.734%
36 | CCOC(=O)[C@H](CCc1ccccc1)N[C@H]1CCc2ccccc2N(CC(=O)O)C1=O [UM0121340:03, Benazepril HCl] | -0.4329%
37 | CC(=O)O[C@]1(C(C)=O)CC[C@H]2[C@@H]3C[C@H](C)C4=CC(=O)CC[C@]4(C)[C@H]3CC[C@@]21C [UM0142284:01, Medroxyprogesterone acetate] | 6.658%
38 | CC(C)c1cc(-c2n[nH]c(=O)n2-c2ccc3c(ccn3C)c2)c(O)cc1O [UM0141825:01, Ganetespib (STA-9090)] | 30.75%
39 | CC(C)n1c(/C=C/[C@@H](O)C[C@@H](O)CC(=O)O)c(-c2ccc(F)cc2)c2ccccc21 [UM0141809:01, Fluvastatin Sodium] | 14.88%
40 | CC(=O)[C@]1(N)Cc2c(O)c3c(c(O)c2[C@@H](O[C@H]2C[C@H](O)[C@H](O)CO2)C1)C(=O)c1ccccc1C3=O [UM0141961:01, Amrubicin] | 25.46%
41 | C[C@H](NC(=O)CCC(F)(F)F)C(=O)N[C@@H]1C(=O)N(CCO)c2ncccc2-c2ccccc21 [UM0141669:01, LY3039478] | -1.62%
42 | O=C(Nc1ccc(-c2ccnc(Nc3ccc(N4CCOCC4)cc3)n2)cc1)C1CCCN1 (stereo not shown) [UM0141648:01, XL019] | -3.897%
43 | CN1CCN(c2cccc(Nc3nc4c(-c5ccc(S(C)(=O)=O)cc5)cccn4n3)c2)CC1 [UM0141732:01, CEP-33779] | 32.81%
44 | CN(C)c1ccc(C(=O)NCCCCCCC(=O)NO)cc1 [UM0141709:01, M344] | 1.639%
45 | CCCCN(Cc1ccc(C(=O)NO)cc1)C(=O)Nc1ccccc1 [UM0142549:01, Nexturastat A] | 2.476%
46 | Cc1ccc(C(=O)Nc2cccc(C(F)(F)F)c2)cc1Nc1nc(-c2cccnc2)nc2c1cnn2C [UM0130987:02, NVP-BHG712] | 37.9%

Row | SMILES | Inh (PKA)
47 | O=C1c2c(O)cc(O)cc2O[C@H](c2ccc(O)c(O)c2)[C@H]1O [UM0142856:01, Taxifolin] | 0.9672%
48 | C=C1CC[C@@H]2[C@](C)(CO)[C@H](O)CC[C@@]2(C)[C@@H]1C/C=C1/C(=O)OC[C@H]1O [UM0142859:01, Andrographolide] | 1.527%
49 | O=C(COc1cccc2c(=O)[nH]ccc12)c1ccccc1 [UM0141740:01, UPF 1069] | 15.76%
50 | CC(C)(C)NCC(O)c1cc(O)cc(O)c1 (stereo not shown) [UM0142204:01, Terbutaline Sulfate] | 1.128%
51 | COc1ccc(-c2ccccc2)cc1NS(=O)(=O)c1cc(Cl)cc(Cl)c1O [UM0142166:01, BMS-303141] | 65.56%
52 | Cc1cc(N2CCOCC2)cc2[nH]c(-c3c(NC[C@@H](O)c4cccc(Cl)c4)cc[nH]c3=O)nc12 [UM0141451:01, BMS-536924] | 41.39%
53 | NC(=O)Cc1cccc(C(=O)c2ccccc2)c1N [UM0141488:01, Nepafenac] | 7.116%
54 | O=c1cc(-c2ccc(O)c(-c3c(O)cc(O)c4c(=O)cc(-c5ccc(O)cc5)oc34)c2)oc2cc(O)cc(O)c12 [UM0142863:01, Amentoflavone] | 47.02%
55 | CC[C@H](C)C(=O)O[C@H]1C[C@H](O)C=C2C=C[C@H](C)[C@H](CC[C@@H](O)C[C@@H](O)CC(=O)O)[C@H]21 [UM0141813:01, Pravastatin sodium] | 0.8236%
56 | NCCCC[C@@H]1NC(=O)[C@@H](Cc2ccccc2)NC(=O)[C@H](CC(=O)O)NC(=O)CNC(=O)[C@H](CCCN=C(N)N)NC1=O [UM0141923:01, Cyclo (-RGDfK)] | -1.971%
57 | Cc1cccc(Nc2cc(Cl)nc(SCC(=O)O)n2)c1C [UM0141774:01, WY-14643 (Pirinixic Acid)] | 22.49%
58 | Cc1cc(C#N)cc(C)c1Oc1nc(Nc2ccc(C#N)cc2)nc(N)c1Br [UM0142453:01, Etravirine (TMC125)] | 89.04%
59 | N#CCNC(=O)c1ccc(-c2ccnc(Nc3ccc(N4CCOCC4)cc3)n2)cc1 [UM0136756:02, CYT387] | 3.804%
60 | Cc1cc(O)c2c(c1)C(=O)c1cccc(O)c1C2=O [UM0121046:03, Chrysophanol] | 14.51%
61 | CC(C)c1nc(CN(C)C(=O)N[C@H](C(=O)N[C@@H](Cc2ccccc2)C[C@H](O)[C@H](Cc2ccccc2)NC(=O)OCc2cncs2)C(C)C)cs1 [UM0141947:01, Ritonavir] | 6.592%
62 | Nc1ncnc2c1c(-c1cccc(OCc3ccccc3)c1)cn2[C@H]1C[C@@H](CN2CCC2)C1 [UM0141453:01, NVP-AEW541] | 10.76%
63 | Cc1cccc(Cc2c[nH]cn2)c1C [UM0142216:01, Detomidine HCl] | 4.249%
64 | Cc1ccc(Nc2ncc3c(n2)N(C)C(=O)N(c2cc(NC(=O)c4cccc(C(F)(F)F)c4)ccc2C)C3)cn1 [UM0142721:01, GNF-7] | 15.96%
